Assay [1] concerns the target T1, AHR (Homo sapiens, UniProt P35869).
T1 construct: U87 MG glioblastoma cells (ATCC #HTB-14) endogenously expressing AHR; endogenous in cells; host or cells: U87 MG glioblastoma cells (ATCC #HTB-14)
T1 sequence (P35869 11-848): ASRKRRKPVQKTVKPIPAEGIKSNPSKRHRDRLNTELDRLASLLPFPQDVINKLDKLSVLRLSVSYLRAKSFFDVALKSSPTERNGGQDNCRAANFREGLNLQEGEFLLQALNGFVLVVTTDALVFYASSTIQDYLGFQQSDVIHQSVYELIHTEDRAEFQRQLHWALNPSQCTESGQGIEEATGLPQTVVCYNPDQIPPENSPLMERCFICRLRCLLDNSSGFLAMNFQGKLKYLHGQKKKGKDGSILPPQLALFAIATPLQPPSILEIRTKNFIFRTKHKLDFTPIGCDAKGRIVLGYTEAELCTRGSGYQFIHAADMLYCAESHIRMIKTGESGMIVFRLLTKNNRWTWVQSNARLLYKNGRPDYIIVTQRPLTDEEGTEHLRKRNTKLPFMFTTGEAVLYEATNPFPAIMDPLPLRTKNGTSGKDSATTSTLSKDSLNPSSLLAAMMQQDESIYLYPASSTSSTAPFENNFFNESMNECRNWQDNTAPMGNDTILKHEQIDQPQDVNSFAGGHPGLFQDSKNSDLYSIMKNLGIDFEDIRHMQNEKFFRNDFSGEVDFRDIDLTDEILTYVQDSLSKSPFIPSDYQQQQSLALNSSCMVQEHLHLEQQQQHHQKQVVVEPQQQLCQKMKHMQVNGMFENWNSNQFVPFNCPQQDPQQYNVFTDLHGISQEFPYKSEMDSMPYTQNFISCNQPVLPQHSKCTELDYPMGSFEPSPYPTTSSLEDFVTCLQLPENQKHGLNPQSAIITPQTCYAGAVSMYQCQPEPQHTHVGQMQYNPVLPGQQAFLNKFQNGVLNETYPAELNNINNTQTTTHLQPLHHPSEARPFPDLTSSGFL
The experiment in a line: In vitro assay 1: antagonism in human cell line (AHR transactivation, firefly luciferase reporter, kynurenic acid prestimulated). The class given is cell-based. The following applies: AHR Antagonism Human IC50 [M]. Put shortly: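 U87 MG glioblastoma cells with endogenous AHR, stably carrying a DRE-driven firefly luciferase reporter and constitutive Renilla reporter, prestimulated with kynurenic acid before compound addition. Firefly and Renilla read by dual luciferase; Renilla flags toxicity; normalized to controls (150 μM kynurenic acid + 5 μM staurosporine as full inhibition); repeat values averaged or median.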

In assay [2] the target is T2, AHR (Mus musculus, UniProt P30561).
T2 sequence (P30561 1-848 P471L/N533S/M589L): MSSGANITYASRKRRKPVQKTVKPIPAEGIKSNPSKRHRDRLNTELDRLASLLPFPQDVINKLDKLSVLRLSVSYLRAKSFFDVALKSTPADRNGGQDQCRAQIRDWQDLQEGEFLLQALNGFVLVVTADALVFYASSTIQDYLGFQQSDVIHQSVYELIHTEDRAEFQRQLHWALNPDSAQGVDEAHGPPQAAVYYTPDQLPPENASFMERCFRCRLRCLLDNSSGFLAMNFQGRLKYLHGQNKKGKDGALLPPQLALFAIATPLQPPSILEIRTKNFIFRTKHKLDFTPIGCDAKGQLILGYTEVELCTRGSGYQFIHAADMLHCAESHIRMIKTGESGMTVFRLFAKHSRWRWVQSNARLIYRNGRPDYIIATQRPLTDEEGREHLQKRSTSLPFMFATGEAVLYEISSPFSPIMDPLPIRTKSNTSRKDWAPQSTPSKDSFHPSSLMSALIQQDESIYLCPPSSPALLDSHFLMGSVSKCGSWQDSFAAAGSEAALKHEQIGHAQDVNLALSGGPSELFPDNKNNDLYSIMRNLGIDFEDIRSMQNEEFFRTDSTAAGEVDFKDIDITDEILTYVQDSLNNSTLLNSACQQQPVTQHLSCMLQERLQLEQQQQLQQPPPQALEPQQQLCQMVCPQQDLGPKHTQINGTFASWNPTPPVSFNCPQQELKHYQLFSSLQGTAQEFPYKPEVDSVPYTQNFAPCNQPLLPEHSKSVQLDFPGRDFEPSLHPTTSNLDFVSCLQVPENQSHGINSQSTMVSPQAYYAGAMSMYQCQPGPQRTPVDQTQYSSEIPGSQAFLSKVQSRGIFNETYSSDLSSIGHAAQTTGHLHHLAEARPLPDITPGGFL
The experiment in a line: In vitro assay 3: antagonism in mouse cell line (AHR transactivation, firefly luciferase reporter, kynurenic acid prestimulated). The class given is cell-based. Put shortly: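 Mouse cells stably carrying a DRE-driven, AHR-inducible firefly luciferase reporter were prestimulated with the endogenous agonist kynurenic acid before compound addition. Luciferase activity was measured by luminescence and normalized to positive and negative controls, with cells lacking kynurenic acid serving as full-inhibition control. Repeat tests are reported as mean or median.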
Background: Reporter assays use an easily measured gene product as a stand-in for the process of interest.

[3] abbreviates: Hepa 1c1c7 cells, 200 μM kynurenic acid, 20 hours, firefly luciferase reporter, read-out: AHR Antagonism Mouse IC50.
[4] abbreviates: mouse Hepa 1c1c7 cells, 200 μM kynurenic acid, 20 hours, read-out: AHR Antagonism Mouse IC50.

A word on the IC50: it is the concentration that gives 50% inhibition.

SMILES strings stand for the structures. Read-outs that look alike come from different tables or passages of the source.

Turning to `C[C@@H](Nc1nc2c(Br)cccc2c2nc(-c3cnn(C)c3)nn12)C(=O)N1CCN(C(=O)OC(C)(C)C)CC1` [Example 886, tert-butyl 4-{N-[7-bromo-2-(1-methyl-1H-pyrazol-4-yl)[1,2,4]triazolo[1,5-c]quinazolin-5-yl]-D-alanyl}piperazine-1-carboxylate], the 50% inhibitory concentration (IC50) was 6.83e-08 M against AHR [1] (firefly luciferase reporter) and 99.3 nM on AHR [2] (setting [3]).
With `CCn1cc(-c2nc3c4cccc(Cl)c4nc(N[C@@H]4CCCCNC4=O)n3n2)c(C)n1` [Example 819, (3R)-3-{[7-chloro-2-(1-ethyl-3-methyl-1H-pyrazol-4-yl)[1,2,4]triazolo[1,5-c]quinazolin-5-yl]amino}azepan-2-one], the IC50 against AHR [1] (firefly luciferase reporter) was 2.31e-10 M; on AHR [2] (setting [3]) it was 0.385 nM.
`Nc1ccc(-c2nc3c4ccccc4nc(N[C@@H]4CCCCNC4=O)n3n2)cn1` [Example 637, (3R)-3-{[2-(6-aminopyridin-3-yl)[1,2,4]triazolo[1,5-c]quinazolin-5-yl]amino}azepan-2-one]: the figures for the half-maximal inhibitory concentration (IC50) against AHR [1] and at AHR [2] (setting [4]) were 1.15e-08 M and 21.4 nM, respectively.
On the same counts, the results for `O=C1NCCCC[C@H]1Nc1nc2ccccc2c2nc(-c3ccc(O)cc3)nn12` [Example 614, (3R)-3-{[2-(4-hydroxyphenyl)[1,2,4]triazolo[1,5-c]quinazolin-5-yl]amino}azepan-2-one] are 2.09e-08 M and 23.8 nM.
For the compound `O=C1NCCCCCC1Nc1nc2ccccc2c2nc(-c3ccccc3OC(F)(F)F)nn12` (stereo not shown) [Example 461, 3-({2-[2-(trifluoromethoxy)phenyl][1,2,4]triazolo[1,5-c]quinazolin-5-yl}amino)azocan-2-one], the IC50 came to 6.18e-09 M on AHR [1] and 1.95 nM on AHR [2] (setting [4]).
With `COc1ccc(-c2nc3c4cccc(Br)c4nc(N[C@H]4CNCCNC4=O)n3n2)cc1` [Example 972, (6S)-6-{[7-bromo-2-(4-methoxyphenyl)[1,2,4]triazolo[1,5-c]quinazolin-5-yl]amino}-1,4-diazepan-5-one], the figures for the half-inhibitory concentration (IC50) against AHR [1] (firefly luciferase reporter) and on AHR [2] (setting [3]) were 3.09e-08 M and 7.12 nM, respectively.
In the case of `COc1cccc(-c2nc3c4ccccc4nc(NC4CCNC4=O)n3n2)c1` (single isomer, unassigned) [Example 121, 3-{[2-(3-methoxyphenyl)[1,2,4]triazolo[1,5-c]quinazolin-5-yl]amino}pyrrolidin-2-one], the IC50 against AHR [1] came to 1.96e-07 M; at AHR [2] (setting [4]), 275 nM.
For `COc1ccc(-c2nc3c4ccccc4nc(N[C@H](C)C(=O)NCCN(C)C(=O)OC(C)(C)C)n3n2)cc1` [Example 889, tert-butyl [2-({N-[2-(4-methoxyphenyl)[1,2,4]triazolo[1,5-c]quinazolin-5-yl]-D-alanyl}amino)ethyl]methylcarbamate], the results for the IC50 at AHR [1] (firefly luciferase reporter) and at AHR [2] (setting [3]) were 3.9e-09 M and 4.45 nM, respectively.
With `COc1ccc(-c2nc3c4cccc(N5CCOCC5)c4nc(N[C@@H]4CCCCNC4=O)n3n2)cc1` [Example 654, (3R)-3-{[2-(4-methoxyphenyl)-7-(morpholin-4-yl)[1,2,4]triazolo[1,5-c]quinazolin-5-yl]amino}azepan-2-one], the figures for the IC50 on AHR [1] and on AHR [2] (setting [4]) were 1.03e-07 M and 221 nM, respectively.
Turning to `COc1cccc(-c2nc3c4ccccc4nc(N[C@H](C(N)=O)C(C)C)n3n2)c1` [Example 83, N^2-[2-(3-methoxyphenyl)[1,2,4]triazolo[1,5-c]quinazolin-5-yl]-L-valinamide], the IC50 was found to be 6.99e-07 M against AHR [1] and 115 nM at AHR [2] (setting [4]).
On the same counts, the results for `O=C1NCCCC[C@H]1Nc1nc2ccccc2c2nc(-c3cncnc3)nn12` [Example 642, (3R)-3-{[2-(pyrimidin-5-yl)[1,2,4]triazolo[1,5-c]quinazolin-5-yl]amino}azepan-2-one] are 3.34e-07 M and 683 nM.
Regarding `C[C@@H](Nc1nc2c(Br)cccc2c2nc(-c3cnn(C)c3)nn12)C(=O)NCCN1CCOCC1` [Example 782, N^2-[7-bromo-2-(1-methyl-1H-pyrazol-4-yl)[1,2,4]triazolo[1,5-c]quinazolin-5-yl]-N-[2-(morpholin-4-yl)ethyl]-D-alaninamide], the IC50 on AHR [1] was 1.29e-07 M; on AHR [2] (setting [4]) it was 79.7 nM.
In the case of `CC[C@@H](Nc1nc2ccccc2c2nc(-c3cc(F)ccc3OC(F)(F)F)nn12)C(N)=O` [Example 496, (2R)-2-({2-[5-fluoro-2-(trifluoromethoxy)phenyl][1,2,4]triazolo[1,5-c]quinazolin-5-yl}amino)butanamide], the IC50 against AHR [1] was found to be 4.66e-08 M; at AHR [2] (setting [4]) it was 1.9 nM.
`C[C@@H](Nc1nc2c(Br)cccc2c2nc(-c3cnn(C)c3)nn12)C(=O)N1CC2(COC2)C1` [Example 917, (2R)-2-{[7-bromo-2-(1-methyl-1H-pyrazol-4-yl)[1,2,4]triazolo[1,5-c]quinazolin-5-yl]amino}-1-(2-oxa-6-azaspiro[3.3]heptan-6-yl)propan-1-one]: the IC50 came out at 3.76e-08 M against AHR [1] (firefly luciferase reporter) and 65.6 nM on AHR [2] (read-out: AHR Antagonism Mouse IC50, Hepa 1c1c7 cells, 200 μM kynurenic acid, 20 hours, firefly luciferase reporter).
On to `COc1ccc(-c2nc3c4cccc(S(=O)(=O)C(C)C)c4nc(N[C@@H]4CNCCNC4=O)n3n2)cc1` [Example 941, (6R)-6-{[2-(4-methoxyphenyl)-7-(propan-2-sulfonyl)[1,2,4]triazolo[1,5-c]quinazolin-5-yl]amino}-1,4-diazepan-5-one], for which the IC50 worked out at 3.61e-08 M on AHR [1] (firefly luciferase reporter) and 67.5 nM at AHR [2] (setting [3]).
As for `COc1ccc(-c2nc3c4c(N5CCOCC5)cccc4nc(N[C@@H]4CCCCNC4=O)n3n2)cc1` [Example 655, (3R)-3-{[2-(4-methoxyphenyl)-10-(morpholin-4-yl)[1,2,4]triazolo[1,5-c]quinazolin-5-yl]amino}azepan-2-one], the IC50 stood at 1.39e-07 M at AHR [1] and 256 nM on AHR [2] (setting [4]).
For the compound `COc1ccc(-c2nc3c4cccc(Br)c4nc(N[C@@H]4CN(C)CCNC4=O)n3n2)cc1` [Example 995, (6R)-6-{[7-bromo-2-(4-methoxyphenyl)[1,2,4]triazolo[1,5-c]quinazolin-5-yl]amino}-1-methyl-1,4-diazepan-5-one], the IC50 on AHR [1] (firefly luciferase reporter) came out at 6.97e-10 M; on AHR [2] (setting [3]), 2.11 nM.
For `COc1ccc(-c2nc3c4ccccc4nc(N[C@H](C)C(=O)NC(C)C)n3n2)cc1` [Example 391, N^2-[2-(4-Methoxyphenyl)[1,2,4]triazolo[1,5-c]quinazolin-5-yl]-N-propan-2-yl-D-alaninamide], the results for the half-maximal inhibitory concentration (IC50) against AHR [1] and at AHR [2] (setting [4]) were 3.31e-08 M and 46.1 nM, respectively.
Turning to `COc1ccc(-c2nc3c4cccc(Br)c4nc(N[C@H](C)C(=O)N4CCN(C(=O)OC(C)(C)C)CC4)n3n2)cc1` [Example 883, tert-butyl 4-{N-[7-bromo-2-(4-methoxyphenyl)[1,2,4]triazolo[1,5-c]quinazolin-5-yl]-D-alanyl}piperazine-1-carboxylate], the IC50 against AHR [1] (firefly luciferase reporter) stood at 5.84e-09 M; on AHR [2] (setting [3]), 7.79 nM.
In the same order, the values of `C[C@@H](Nc1nc2c(Br)cccc2c2nc(-c3cnn(C)c3)nn12)C(=O)N1C[C@H]2C[C@@H]1CN2C` [Example 902] are 8e-08 M and 95 nM.
